Measured values: patent US9113629B2, “4-amino-6-(4-substituted-phenyl)-picolinates and 6-amino-2-(4-substituted-phenyl)-pyrimidine-4-carboxylates and their use as herbicides” (DOW AGROSCIENCES LLC, priority 2013, dated 2015)
Where two headings read alike, the source gives them in different places.

Assays:
[1] = test system: Key Grass and Sedge Weeds as well as Grass Crops; test: Post-emergent Test II herbicidal activity (Table 6); assay type: in vivo; conditions: post-emergence, 336 h; for pest or weed control at 70 g/ha: 70 g ai/ha; for pest or weed control at 140 g/ha: 140 g ai/ha
Procedure, shortened: (§1)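 Percent injury, 0 (none) to 100 (complete kill), was judged visually 14 d after spraying young plants at the first or second true leaf stage with compound in an acetone/DMSO aqueous carrier at 187 L/ha. Plants were kept in a greenhouse at 23–29 °C by day.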

[2] = test system: Key Broadleaf Weed and Crop Species; test: Post-emergent Test II herbicidal activity (Table 5); assay type: in vivo; conditions: post-emergence, 336 h, 14 days after application; for pest or weed control at 70 g/ha: application rate 70 g ai/ha; for pest or weed control at 140 g/ha: application rate 140 g ai/ha
Procedure, shortened: as §1

[3] = CYPES: yellow nutsedge (Cyperus esculentus), read-out: Visual Growth Reduction (%) 14 Days After Application, CYPES
[4] = DIGSA: crabgrass (Digitaria sanguinalis), read-out: Visual Growth Reduction (%) 14 Days After Application, DIGSA
[5] = ECHCG: barnyardgrass (Echinochloa crus-galli), read-out: Visual Growth Reduction (%) 14 Days After Application, ECHCG
[6] = ORYSA: rice (Oryza sativa), crop, read-out: Visual Growth Reduction (%) 14 Days After Application, ORYSA
[7] = SETFA: giant foxtail (Setaria faberi), read-out: Visual Growth Reduction (%) 14 Days After Application, SETFA
[8] = SORVU: grain sorghum (Sorghum vulgare), read-out: Visual Growth Reduction (%) 14 Days After Application, SORVU
[9] = TRZSS (wheat, Triticum aestivum), crop, read-out: Visual Growth Reduction (%) 14 Days After Application, TRZSS
[10] = ZEAMX: maize, corn (Zea mays), crop, read-out: Visual Growth Reduction (%) 14 Days After Application, ZEAMX
[11] = ABUTH: velvetleaf (Abutilon theophrasti), read-out: Visual Growth Reduction (%) 14 Days After Application, ABUTH
[12] = BRSNN: oilseed-rape, canola (Brassica napus), read-out: Visual Growth Reduction (%) 14 Days After Application, BRSNN
[13] = CHEAL: lambsquarters (Chenopodium album), read-out: Visual Growth Reduction (%) 14 Days After Application, CHEAL
[14] = EPHHL: wild poinsettia (Euphorbia heterophylla), read-out: Visual Growth Reduction (%) 14 Days After Application, EPHHL
[15] = HELAN: sunflower (Helianthus annuus), read-out: Visual Growth Reduction (%) 14 Days After Application, HELAN
[16] = VIOTR: wild pansy (Viola tricolor), read-out: Visual Growth Reduction (%) 14 Days After Application, VIOTR

## COC(=O)c1nc(-c2ccc(C#N)cc2F)cc(N)c1Cl [Compound 16]
[1]; [3]
  pest or weed control at 70 g/ha: 95 to 100%
  pest or weed control at 140 g/ha: 95 to 100%
[1]; [4]
  pest or weed control at 70 g/ha: 60 to 74%
  pest or weed control at 140 g/ha: 75 to 84%
[1]; [5]
  pest or weed control at 70 g/ha: 75 to 84%
  pest or weed control at 140 g/ha: 95 to 100%
[1]; [6]
  pest or weed control at 70 g/ha: 0 to 29%
  pest or weed control at 140 g/ha: 0 to 29%
[1]; [7]
  pest or weed control at 70 g/ha: 45 to 59%
  pest or weed control at 140 g/ha: 60 to 74%
[1]; [8]
  pest or weed control at 70 g/ha: 60 to 74%
  pest or weed control at 140 g/ha: 60 to 74%
[1]; [9]
  pest or weed control at 70 g/ha: 30 to 44%
  pest or weed control at 140 g/ha: 45 to 59%
[1]; [10]
  pest or weed control at 70 g/ha: 85 to 94%
  pest or weed control at 140 g/ha: 85 to 94%
[2]; [11]
  pest or weed control at 70 g/ha: 85 to 94%
  pest or weed control at 140 g/ha: 95 to 100%
[2]; AMARE: redroot pigweed (Amaranthus retroflexus), read-out: Visual Growth Reduction (%) 14 Days After Application, AMARE
  pest or weed control at 140 g/ha: 95 to 100%
[2]; [12]
  pest or weed control at 70 g/ha: 0 to 29%
  pest or weed control at 140 g/ha: 0 to 29%
[2]; [13]
  pest or weed control at 70 g/ha: 95 to 100%
  pest or weed control at 140 g/ha: 95 to 100%
[2]; [14]
  pest or weed control at 70 g/ha: 95 to 100%
  pest or weed control at 140 g/ha: 95 to 100%
[2]; [15]
  pest or weed control at 70 g/ha: 95 to 100%
  pest or weed control at 140 g/ha: 95 to 100%
[2]; [16]
  pest or weed control at 70 g/ha: 30 to 44%
  pest or weed control at 140 g/ha: 30 to 44%
